Counter-ions that a name gives are not always drawn.

The source of these data is publication PMC8836832, “Novel Aurora A Kinase Inhibitor Fangchinoline Enhances Cisplatin–DNA Adducts and Cisplatin Therapeutic Efficacy in OVCAR-3 Ovarian Cancer Cells-Derived Xenograft Model” (International Journal of Molecular Sciences, 2022).

Experiment [1] has as its system SKOV3. The experiment in a line: cells. The arrangement: MTT cell viability assay, absorbance at 575 nm, SK-OV-3 cells. As to conditions: Homo sapiens, SK-OV-3, 48 h. The method, then: (§1) The cell viability effects of 12 candidate compounds were evaluated by MTT assay and compared against a control group (medium containing 0.1% DMSO). The cells were seeded in 96-well plates and pre-cultured for 24 h (1 × 10^5 cells/well). The cells were then incubated for 48 h with the 12 identified compounds (at 0, 3.125, 6.25, 12.5, 25, 50, or 100 µM) dissolved in 0.1% DMSO. After 48 h, MTT solution (2.5 mg/mL in DMEM) was added to the cells and incubated for 1 h. DMSO was added to dissolve the purple crystals, and the absorbance values were measured at 575 nm using a spectrophotometer (SPECTROstar Nano; BMG LABTECH, Offenburg, Germany). Each treatment group has four biological replicates (n = 4). The IC50 values for each compound in each cell line were obtained using the results of the MTT assay and calculated using the GraphPad Prism 6 program (GraphPad Software, Inc., San Diego, CA, USA). A CI higher than 1.0 indicates an antagonistic effect, a CI equal to 1.0 indicates an additive effect, and a CI lower than 1.0 indicates a synergistic effect.

Experiment [2] relates to MDH2774. The experiment in a line: cells. Details: MTT cell viability assay, absorbance at 575 nm, MDAH 2774 cells. The note with it: Homo sapiens, MDAH 2774, 48 h. The method, then:
as §1

Experiment [3] concerns OVCAR3. Nature of the experiment: cells. The note with it: Homo sapiens, OVCAR-3, 48 h. Details: MTT cell viability assay, absorbance at 575 nm, OVCAR-3 cells. The method, then: as §1
Experiment [4] deals with ES2. Nature of the experiment: cells. As to conditions: Homo sapiens, ES-2, 48 h. Details: MTT cell viability assay, absorbance at 575 nm, ES-2 cells. The method, then:
as §1

Experiment [5] has as its target T1, Aurora A kinase (Aurora A) (Homo sapiens, UniProt O14965).
T1 construct: gene AURKA
T1 sequence (O14965 1-403): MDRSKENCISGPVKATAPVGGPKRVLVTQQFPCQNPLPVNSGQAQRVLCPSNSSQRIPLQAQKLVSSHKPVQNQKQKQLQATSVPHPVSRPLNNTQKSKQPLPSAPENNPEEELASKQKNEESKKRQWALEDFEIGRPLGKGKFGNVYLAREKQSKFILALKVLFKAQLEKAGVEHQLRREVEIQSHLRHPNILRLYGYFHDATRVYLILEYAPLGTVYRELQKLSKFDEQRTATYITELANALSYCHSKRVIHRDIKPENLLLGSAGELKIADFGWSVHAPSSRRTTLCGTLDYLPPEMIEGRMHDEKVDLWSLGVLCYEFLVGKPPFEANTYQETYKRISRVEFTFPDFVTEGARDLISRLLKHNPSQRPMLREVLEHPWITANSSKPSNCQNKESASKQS
Nature of the experiment: in vitro Aurora A kinase assay kit (Promega V1931, luminescence), dose-dependent at […]; supported by CETSA in MDAH […] and OVCAR-3 cells. It is filed as biochemical.

Consider `O=c1cc(-c2ccc(O)c(-c3c(O)cc(O)c4c(=O)cc(-c5ccc(O)cc5)oc34)c2)oc2cc(O)cc(O)c12` [Amentoflavone], for which the figures for the IC50 in experiment [1] and in experiment [2] were 78.9 ± 0.8 µM and 99.32 ± 0.03 µM, respectively.

For `COc1ccc2cc3[n+](cc2c1OC)CCc1cc2c(cc1-3)OCO2` [Berberine], the 50% inhibitory concentration (IC50) in experiment [3] came to 20.56 ± 0.021 µM; in experiment [4], 87.6 ± 0.02 µM; in experiment [1] it was 39.38 ± 0.02 µM; in experiment [2] it was 12.8 ± 1.24 µM.

Consider `O=C(/C=C/c1ccc(O)cc1)CC(=O)/C=C/c1ccc(O)cc1` [Bisdemethoxycurcumin], for which the IC50 came out at 24.9 ± 0.74 µM in experiment [3], 45.5 ± 0.5 µM in experiment [4], 25.1 ± 1.9 µM in experiment [1] and 26 ± 0.53 µM in experiment [2].

In the case of `C/C=C(\C)C(=O)N[C@@H](c1ccccc1)[C@@H](O)C(=O)O[C@H]1C[C@@]2(O)[C@@H](OC(=O)c3ccccc3)[C@@H]3[C@]4(OC(C)=O)CO[C@@H]4C[C@H](O)[C@@]3(C)C(=O)[C@H](OC(C)=O)C(=C1C)C2(C)C` [Cephalomannine], the IC50 in experiment [3] is 41.78 ± 0.013 µM; in experiment [1], 10.79 ± 0.01 µM; in experiment [2], 41.72 ± 0.01 µM.

Turning to `CC(=O)O[C@@]12CO[C@@H]1C[C@H](O)[C@@]1(C)C(=O)[C@H](O)C3=C(C)[C@@H](OC(=O)[C@H](O)[C@@H](NC(=O)OC(C)(C)C)c4ccccc4)C[C@@](O)([C@@H](OC(=O)c4ccccc4)[C@H]21)C3(C)C` [Docetaxel], the half-maximal inhibitory concentration (IC50) in experiment [3] was 40.59 ± 0.015 µM; in experiment [4], 50.38 ± 0.25 µM; in experiment [1], 21.48 ± 0.01 µM; in experiment [2], 24.55 ± 0.011 µM.

On to `Cc1cc(O)c2c(c1)C(=O)c1cc(O)cc(O)c1C2=O` [Emodin], for which the IC50 was 22.64 ± 0.03 µM in experiment [3], 50.2 ± 2.09 µM in experiment [4], 34.7 ± 0.02 µM in experiment [1] and 34.32 ± 0.021 µM in experiment [2].

`O=C(/C=C/c1ccc(O)cc1)c1ccc(O)cc1O` [Isoliquiritigenin]: the concentration for half-maximal inhibition (IC50) in experiment [3] came to 25.8 ± 1.21 µM; in experiment [4] it was 51.46 ± 0.32 µM; in experiment [1], 26 ± 0.44 µM; in experiment [2] it was 50.36 ± 0.48 µM.

With `COc1cc2c(cc1OC)-c1cc3ccc(OC)c(OC)c3c[n+]1CC2` [Palmatine hydrochloride], the IC50 in experiment [1] amounted to 59.33 ± 0.02 µM; in experiment [2], 51.29 ± 0.34 µM.

Take `CN1CCc2cc3c(cc2C(=O)Cc2cc4c(cc2C1)OCO4)OCO3` [Protopine]: the IC50 was 25.4 ± 0.68 µM in experiment [3] and 26.1 ± 0.49 µM in experiment [1].

For the compound `O=C(O)c1cc(O)c2c(c1)[C@@H]([C@H]1c3cc(C(=O)O)cc(O)c3C(=O)c3c(O[C@@H]4O[C@H](CO)[C@@H](O)[C@H](O)[C@H]4O)cccc31)c1cccc(O[C@@H]3O[C@H](CO)[C@@H](O)[C@H](O)[C@H]3O)c1C2=O` [Sennoside B], in experiment [1], the IC50 was above 100 µM.

Take `COc1ccc2cc1Oc1ccc(cc1)C[C@H]1c3cc(c(OC)cc3CCN1C)Oc1c(O)c(OC)cc3c1[C@H](C2)N(C)CC3` [fangchinoline]: the IC50 stood at 9.66 ± 0.3 µM in experiment [3], 25.1 ± 0.65 µM in experiment [4], 11.7 ± 1.2 µM in experiment [1] and 8.71 ± 0.24 µM in experiment [2]. In addition, the “in vitro Aurora A kinase assay kit (Promega V1931, luminescence), dose-dependent” value in experiment [5] is reported as “Figure 2C shows that fangchinoline treatment significantly decreased Aurora A enzymatic activity in a dose-dependent manner”.

What is called IC50 is the concentration at which inhibition is half-maximal.
